System: high conductance Ca2+-activated K+ channel
Format: biochemical
Method: Single Ca^2+ -activated K^+ channel currents were monitored in excised membrane patches derived from either bovine aortic smooth muscle cells or GH3 anterior pituitary cells.
Channel recordings were made by conventional patch clamp procedures as previously described by Hamil, O. P., et al. Using a micromanipulator, a glass micropipette (fabricated from soda lime glass, 5-10 m.OMEGA. resistance; containing 150 mM potassium chloride, 2 mM magnesium chloride, 1 5 μM calcium chloride, 10 mM HEPES, pH 7.3) was positioned on the surface of the cell, slight negative pressure was applied and the formation of a high resistance seal between the plasma membrane and pipette was monitored. Seals of 10-50×10^9 .OMEGA. were required for subsequent measurements.
After attaining such a seal, the cell membrane was ruptured by application of a rapid negative pressure pulse and the electrode was pulled away from the cell to form an outside-facing-out excised patch at the tip of the electrode. The presence of Ca^2+ -activated K^+ channels was then determined, and such activity could be recorded in excised patches for up to two hours. Recordings were made at a holding potential of 0 to +20 mV in a bathing medium consisting of 150 mM sodium chloride, 10 mM HEPES, pH 7.3. […]

For `CC[N+](CC)(CC)CC` [tetraethylammonium ion], the “block of channel activity” value was “rapid reversible block”.
